ChEMBL document CHEMBL5505979, “Novel aminothiazoximone-corbelled ethoxycarbonylpyrimidones with antibiofilm activity to conquer Gram-negative bacteria through potential multitargeting effects” (Eur J Med Chem, 2024)
Values after ≈ are worked out from the molar mass of the structure shown.

Tests used:
Assay type in all cases: functional
Staphylococcus aureus [1] = experiment: Anti-bacterial activity against Staphylococcus aureus CMCC (B) 26001 assessed as inhibition of bacterial growth
Escherichia coli [2] = experiment: Anti-bacterial activity against Escherichia coli ATCC 25922 assessed as inhibition of bacterial growth
Pseudomonas aeruginosa [3] = experiment: Anti-bacterial activity against Pseudomonas aeruginosa ATCC 27853 assessed as inhibition of bacterial growth; details: Pseudomonas aeruginosa, ATCC 27853; read-out: MIC
Klebsiella pneumoniae = experiment: Anti-bacterial activity against Klebsiella pneumoniae KPN325 assessed as inhibition of bacterial growth; details: Klebsiella pneumoniae, KPN325; read-out: MIC
Candida albicans [4] = experiment: Anti-fungal activity against Candida albicans assessed as inhibition of fungal growth; details: Candida albicans; read-out: MIC
Pseudomonas aeruginosa [5] = experiment: Anti-bacterial activity against Pseudomonas aeruginosa ATCC 15442 assessed as inhibition of bacterial growth; details: Pseudomonas aeruginosa, ATCC 15442; read-out: MIC
Staphylococcus aureus [6] = experiment: Anti-bacterial activity against Staphylococcus aureus ATCC 29213 assessed as inhibition of bacterial growth; details: Staphylococcus aureus, ATCC 29213; read-out: MIC
Staphylococcus aureus [7] = experiment: Anti-bacterial activity against Staphylococcus aureus ATCC 12600 assessed as inhibition of bacterial growth; details: Staphylococcus aureus, ATCC 12600; read-out: MIC
Candida albicans [8] = experiment: Anti-fungal activity against Candida albicans 90023 assessed as inhibition of fungal growth
Staphylococcus aureus [9] = experiment: Anti-bacterial activity against methicillin-resistant Staphylococcus aureus ATCC 43300 assessed as inhibition of bacterial growth; details: Staphylococcus aureus, ATCC 43300; read-out: MIC
Pseudomonas aeruginosa [10] = experiment: Anti-bacterial activity against Pseudomonas aeruginosa CMCC (B) 10104 assessed as inhibition of bacterial growth; details: Pseudomonas aeruginosa, CMCC (B) 10104; read-out: MIC
Candida parapsilosis = experiment: Anti-fungal activity against Candida parapsilosis assessed as inhibition of fungal growth; details: Lodderomyces parapsilosis; read-out: MIC
Staphylococcus aureus [11] = experiment: Anti-bacterial activity against Staphylococcus aureus CMCC (B) 26003 assessed as inhibition of bacterial growth
Staphylococcus aureus [12] = experiment: Anti-bacterial activity against Staphylococcus aureus ATCC 25923 assessed as inhibition of bacterial growth; details: Staphylococcus aureus, ATCC 25923; read-out: MIC
Staphylococcus aureus [13] = experiment: Anti-bacterial activity against Staphylococcus aureus ATCC 1708 assessed as inhibition of bacterial growth; details: Staphylococcus aureus, ATCC 1708; read-out: MIC
Escherichia coli [14] = experiment: Anti-bacterial activity against Escherichia coli JM109 assessed as inhibition of bacterial growth
Pseudomonas aeruginosa [15] = experiment: Anti-bacterial activity against Pseudomonas aeruginosa ATCC 9027 assessed as inhibition of bacterial growth
Acinetobacter baumannii = experiment: Anti-bacterial activity against Acinetobacter baumannii R674 assessed as inhibition of bacterial growth
Enterococcus faecalis = experiment: Anti-bacterial activity against Enterococcus faecalis V583 assessed as inhibition of bacterial growth
Staphylococcus aureus [16] = experiment: Anti-bacterial activity against methicillin-resistant Staphylococcus aureus N315 assessed as inhibition of bacterial growth; details: Staphylococcus aureus, N315; read-out: MIC
Staphylococcus aureus [17] = experiment: Anti-bacterial activity against Staphylococcus aureus ATCC 6538 assessed as inhibition of bacterial growth
Pseudomonas aeruginosa [18] = experiment: Anti-bacterial activity against Pseudomonas aeruginosa ST235 assessed as inhibition of bacterial growth; details: Pseudomonas aeruginosa, ST235; read-out: MIC
Candida tropicalis = experiment: Anti-fungal activity against Candida tropicalis assessed as inhibition of fungal growth; details: Candida tropicalis; read-out: MIC

SMILES	MIC (Staphylococcus aureus [1]) [µM]	MIC (Escherichia coli [2]) [µM]	MIC (Pseudomonas aeruginosa [3]) [µM]	MIC (Klebsiella pneumoniae) [µM]	MIC (Candida albicans [4]) [µM]	MIC (Pseudomonas aeruginosa [5]) [µM]	MIC (Staphylococcus aureus [6]) [µM]	MIC (Staphylococcus aureus [7]) [µM]	MIC (Candida albicans [8]) [µM]	MIC (Staphylococcus aureus [9]) [µM]	MIC (Pseudomonas aeruginosa [10]) [µM]	MIC (Candida parapsilosis) [µM]	MIC (Staphylococcus aureus [11]) [µM]	MIC (Staphylococcus aureus [12]) [µM]	MIC (Staphylococcus aureus [13]) [µM]	MIC (Escherichia coli [14]) [µM]	MIC (Pseudomonas aeruginosa [15]) [µM]	MIC (Acinetobacter baumannii) [µM]	MIC (Enterococcus faecalis) [µM]	MIC (Staphylococcus aureus [16]) [µM]	also measured
CCOC(=O)C1=C(CN2CCN(C(=O)/C(=N/OC)c3csc(N)n3)CC2)NC(=O)NC1c1nccs1 (centres undefined)	60 (≈ 32.1 µg/mL)	60 (≈ 32.1 µg/mL)	15 (≈ 8.02 µg/mL)	240 (≈ 128 µg/mL)	479 (≈ 256 µg/mL)	120 (≈ 64.2 µg/mL)	479 (≈ 256 µg/mL)	120 (≈ 64.2 µg/mL)	60 (≈ 32.1 µg/mL)	120 (≈ 64.2 µg/mL)	240 (≈ 128 µg/mL)	479 (≈ 256 µg/mL)	240 (≈ 128 µg/mL)	240 (≈ 128 µg/mL)	240 (≈ 128 µg/mL)	240 (≈ 128 µg/mL)	60 (≈ 32.1 µg/mL)	479 (≈ 256 µg/mL)	240 (≈ 128 µg/mL)	240 (≈ 128 µg/mL)	MIC (Staphylococcus aureus [17]): 120 µM (≈ 64.2 µg/mL); MIC (Pseudomonas aeruginosa [18]): 30 µM (≈ 16 µg/mL); MIC (Candida tropicalis): 60 µM (≈ 32.1 µg/mL)
CCCCc1nc(Cl)c(C2NC(=O)NC(CN3CCN(CC(=O)c4ccc(C)cc4)CC3)=C2C(=O)OCC)[nH]1 (centres undefined)	58 (≈ 32.3 µg/mL)	115 (≈ 64.1 µg/mL)	230 (≈ 128 µg/mL)	230 (≈ 128 µg/mL)	460 (≈ 256 µg/mL)	460 (≈ 256 µg/mL)	58 (≈ 32.3 µg/mL)	230 (≈ 128 µg/mL)	230 (≈ 128 µg/mL)	115 (≈ 64.1 µg/mL)	230 (≈ 128 µg/mL)	460 (≈ 256 µg/mL)	460 (≈ 256 µg/mL)	58 (≈ 32.3 µg/mL)	460 (≈ 256 µg/mL)	29 (≈ 16.2 µg/mL)	29 (≈ 16.2 µg/mL)	115 (≈ 64.1 µg/mL)	58 (≈ 32.3 µg/mL)	230 (≈ 128 µg/mL)	MIC (Staphylococcus aureus [17]): 230 µM (≈ 128 µg/mL); MIC (Pseudomonas aeruginosa [18]): 58 µM (≈ 32.3 µg/mL); MIC (Candida tropicalis): 460 µM (≈ 256 µg/mL)
CCCCc1nc(Cl)c(C2NC(=O)NC(CN3CCN(CC(=O)c4nccs4)CC3)=C2C(=O)OCC)[nH]1 (centres undefined)	15 (≈ 8.25 µg/mL)	58 (≈ 31.9 µg/mL)	58 (≈ 31.9 µg/mL)	117 (≈ 64.4 µg/mL)	466 (≈ 256 µg/mL)	58 (≈ 31.9 µg/mL)	58 (≈ 31.9 µg/mL)	58 (≈ 31.9 µg/mL)	29 (≈ 16 µg/mL)	58 (≈ 31.9 µg/mL)	58 (≈ 31.9 µg/mL)	466 (≈ 256 µg/mL)	117 (≈ 64.4 µg/mL)	29 (≈ 16 µg/mL)	117 (≈ 64.4 µg/mL)	58 (≈ 31.9 µg/mL)	58 (≈ 31.9 µg/mL)	58 (≈ 31.9 µg/mL)	117 (≈ 64.4 µg/mL)	117 (≈ 64.4 µg/mL)	MIC (Staphylococcus aureus [17]): 29 µM (≈ 16 µg/mL); MIC (Pseudomonas aeruginosa [18]): 58 µM (≈ 31.9 µg/mL); MIC (Candida tropicalis): 466 µM (≈ 256 µg/mL)
CCOC(=O)C1=C(CN2CCN(C(=O)/C(=N/OC)c3csc(N)n3)CC2)NC(=O)NC1c1ccc(Cl)cc1Cl (centres undefined)	54 (≈ 32.2 µg/mL)	54 (≈ 32.2 µg/mL)	54 (≈ 32.2 µg/mL)	108 (≈ 64.4 µg/mL)	449 (≈ 268 µg/mL)	54 (≈ 32.2 µg/mL)	108 (≈ 64.4 µg/mL)	54 (≈ 32.2 µg/mL)	449 (≈ 268 µg/mL)	27 (≈ 16.1 µg/mL)	54 (≈ 32.2 µg/mL)	449 (≈ 268 µg/mL)	108 (≈ 64.4 µg/mL)	54 (≈ 32.2 µg/mL)	54 (≈ 32.2 µg/mL)	108 (≈ 64.4 µg/mL)	108 (≈ 64.4 µg/mL)	27 (≈ 16.1 µg/mL)	27 (≈ 16.1 µg/mL)	108 (≈ 64.4 µg/mL)	MIC (Staphylococcus aureus [17]): 54 µM (≈ 32.2 µg/mL); MIC (Pseudomonas aeruginosa [18]): 54 µM (≈ 32.2 µg/mL); MIC (Candida tropicalis): 449 µM (≈ 268 µg/mL)
CCCCc1nc(Cl)c(C2NC(=O)NC(CN3CCN(CC(=O)c4ccccc4)CC3)=C2C(=O)OCC)[nH]1 (centres undefined)	59 (≈ 32 µg/mL)	59 (≈ 32 µg/mL)	118 (≈ 64.1 µg/mL)	236 (≈ 128 µg/mL)	472 (≈ 256 µg/mL)	118 (≈ 64.1 µg/mL)	59 (≈ 32 µg/mL)	236 (≈ 128 µg/mL)	15 (≈ 8.15 µg/mL)	59 (≈ 32 µg/mL)	118 (≈ 64.1 µg/mL)	472 (≈ 256 µg/mL)	472 (≈ 256 µg/mL)	59 (≈ 32 µg/mL)	472 (≈ 256 µg/mL)	118 (≈ 64.1 µg/mL)	118 (≈ 64.1 µg/mL)	118 (≈ 64.1 µg/mL)	236 (≈ 128 µg/mL)	236 (≈ 128 µg/mL)	MIC (Staphylococcus aureus [17]): 236 µM (≈ 128 µg/mL); MIC (Pseudomonas aeruginosa [18]): 118 µM (≈ 64.1 µg/mL); MIC (Candida tropicalis): 472 µM (≈ 256 µg/mL)
CCOC(=O)C1=C(CN2CCN(C(=O)/C(=N/OC)c3csc(N)n3)CC2)NC(=O)NC1c1ccc(OC)c(OC)c1OC (centres undefined)	415 (≈ 256 µg/mL)	52 (≈ 32.1 µg/mL)	52 (≈ 32.1 µg/mL)	26 (≈ 16.1 µg/mL)	398 (≈ 246 µg/mL)	104 (≈ 64.2 µg/mL)	208 (≈ 128 µg/mL)	415 (≈ 256 µg/mL)	398 (≈ 246 µg/mL)	208 (≈ 128 µg/mL)	104 (≈ 64.2 µg/mL)	398 (≈ 246 µg/mL)	208 (≈ 128 µg/mL)	208 (≈ 128 µg/mL)	208 (≈ 128 µg/mL)	104 (≈ 64.2 µg/mL)	104 (≈ 64.2 µg/mL)	104 (≈ 64.2 µg/mL)	208 (≈ 128 µg/mL)	415 (≈ 256 µg/mL)	MIC (Staphylococcus aureus [17]): 104 µM (≈ 64.2 µg/mL); MIC (Pseudomonas aeruginosa [18]): 52 µM (≈ 32.1 µg/mL); MIC (Candida tropicalis): 398 µM (≈ 246 µg/mL)
CCOC(=O)C1=C(CN2CCN(C(=O)/C(=N/OC)c3csc(N)n3)CC2)NC(=O)NC1c1cccc(O)c1 (centres undefined)	59 (≈ 32.1 µg/mL)	59 (≈ 32.1 µg/mL)	59 (≈ 32.1 µg/mL)	59 (≈ 32.1 µg/mL)	430 (≈ 234 µg/mL)	59 (≈ 32.1 µg/mL)	59 (≈ 32.1 µg/mL)	15 (≈ 8.15 µg/mL)	7 (≈ 3.81 µg/mL)	59 (≈ 32.1 µg/mL)	117 (≈ 63.6 µg/mL)	430 (≈ 234 µg/mL)	236 (≈ 128 µg/mL)	118 (≈ 64.1 µg/mL)	118 (≈ 64.1 µg/mL)	59 (≈ 32.1 µg/mL)	59 (≈ 32.1 µg/mL)	15 (≈ 8.15 µg/mL)	15 (≈ 8.15 µg/mL)	118 (≈ 64.1 µg/mL)	MIC (Staphylococcus aureus [17]): 59 µM (≈ 32.1 µg/mL); MIC (Pseudomonas aeruginosa [18]): 59 µM (≈ 32.1 µg/mL); MIC (Candida tropicalis): 430 µM (≈ 234 µg/mL)
CCOC(=O)C1=C(CN2CCN(C(=O)/C(=N/OC)c3csc(N)n3)CC2)NC(=O)NC1c1ccc(OC)cc1 (centres undefined)	58 (≈ 32.3 µg/mL)	230 (≈ 128 µg/mL)	230 (≈ 128 µg/mL)	230 (≈ 128 µg/mL)	470 (≈ 262 µg/mL)	230 (≈ 128 µg/mL)	115 (≈ 64.1 µg/mL)	230 (≈ 128 µg/mL)	7 (≈ 3.9 µg/mL)	115 (≈ 64.1 µg/mL)	230 (≈ 128 µg/mL)	470 (≈ 262 µg/mL)	115 (≈ 64.1 µg/mL)	230 (≈ 128 µg/mL)	115 (≈ 64.1 µg/mL)	115 (≈ 64.1 µg/mL)	230 (≈ 128 µg/mL)	115 (≈ 64.1 µg/mL)	58 (≈ 32.3 µg/mL)	230 (≈ 128 µg/mL)	MIC (Staphylococcus aureus [17]): 115 µM (≈ 64.1 µg/mL); MIC (Pseudomonas aeruginosa [18]): 230 µM (≈ 128 µg/mL); MIC (Candida tropicalis): 470 µM (≈ 262 µg/mL)
